Results from patent US20250287944A1, “AMINOETHOXYVINYLGLYCINE AND 1-AMINO-1-CYCLOPROPANECARBOXYLIC ACID AND USES THEREOF” (Valent BioSciences LLC, priority 2024, published 2025).

Assays:
Assay type in all cases: in vivo
[1] = tested on: apples, Cripps Pink variety; assay: Apple greasiness in Cripps Pink variety; conditions: 12 weeks of cold storage and 7 days at room temperature
Method: 10 sets of unripened apples, Cripps Pink variety, harvested three weeks before the normal harvest date, were each foliar sprayed with either 1) 0.05% Regulaid® as a control, 2) 125 ppm ACC, 3) 250 ppm ACC, 4) 500 ppm ACC, 5) 125 ppm AVG, 6) 125 ppm ACC and 125 ppm AVG, 7) 250 ppm ACC and 125 ppm AVG or 8) 500 ppm ACC and 125 ppm AVG. Following 12 weeks of cold storage and 7 days at room temperature greasiness was measured.

[2] = tested on: apples, Cripps Pink variety; assay: Apple coloration in Cripps Pink variety (blush classes); conditions: 34 hours post spray; for % Cripps Red: apples with a blush from 20% to 40%; for % Pink Lady: apples with a blush of greater than 40%; for % Class 3: apples with a blush of less than 20%
Method: 10 sets of unripened apples, Cripps Pink variety, harvested three weeks before the normal harvest date, were each foliar sprayed with either 1) 0.05% Regulaid® as a control, 2) 125 ppm ACC, 3) 250 ppm ACC, 4) 500 ppm ACC, 5) 125 ppm AVG, 6) 125 ppm ACC and 125 ppm AVG, 7) 250 ppm ACC and 125 ppm AVG or 8) 500 ppm ACC and 125 ppm AVG. 34 hours post spray application percent red pixel area (shaded) was measured. Pink Lady denotes apples with a blush of greater than 40%, Cripps Red denotes apples with a blush from 20% to 40% and Class 3 denotes apples with a blush of less than 20%.

[3] = tested on: apples, Cripps Pink variety; assay: Apple characteristics in Cripps Pink variety (red pixel area, ground color, firmness, starch conversion, brix); design: Ground Color / Starch: scale not given here; Firmness: unit not given here; conditions: 34 hours post spray; for Average % Red Pixel Area: shaded; for Starch: starch conversion
Method: 10 sets of unripened apples, Cripps Pink variety, harvested three weeks before the normal harvest date, were each foliar sprayed with either 1) 0.05% Regulaid® as a control, 2) 125 ppm ACC, 3) 250 ppm ACC, 4) 500 ppm ACC, 5) 125 ppm AVG, 6) 125 ppm ACC and 125 ppm AVG, 7) 250 ppm ACC and 125 ppm AVG or 8) 500 ppm ACC and 125 ppm AVG. 34 hours post spray application percent red pixel area (shaded), ground color, fruit firmness, starch conversion and brix were measured.

[4] = tested on: apple trees with mature apples of the Cripps Pink variety; assay: Fruit drop in Cripps Pink variety
From the text: AVG and/or ACC were applied to apple trees with mature apples of the Cripps Pink variety, wherein each set of trees were foliar sprayed with either 1) 0.05% Regulaid® as a control, 2) 125 ppm ACC, 3) 250 ppm ACC, 4) 500 ppm ACC, 5) 125 ppm AVG, 6) 125 ppm ACC and 125 ppm AVG, 7) 250 ppm ACC and 125 ppm AVG or 8) 500 ppm ACC and 125 ppm AVG.

[5] = harvest 1, 125 ppm foliar spray
[6] = harvest 1, 250 ppm foliar spray
[7] = harvest 1, 500 ppm foliar spray
[8] = harvest 2, 125 ppm foliar spray
[9] = harvest 2, 250 ppm foliar spray
[10] = harvest 2, 500 ppm foliar spray

SMILES: NC1(C(=O)O)CC1 [ACC, 1-amino-1-cyclopropanecarboxylic acid]
- Percent Fruit with Moderate Greasiness [1, 5]: 40%
- Percent Fruit with No Greasiness [1, 5]: 21%
- Percent Fruit with Severe Greasiness [1, 5]: 17%
- Percent Fruit with Slight Greasiness [1, 5]: 22%
- Percent Fruit with Moderate Greasiness [1, 6]: 40%
- Percent Fruit with No Greasiness [1, 6]: 5%
- Percent Fruit with Severe Greasiness [1, 6]: 39%
- Percent Fruit with Slight Greasiness [1, 6]: 16%
- Percent Fruit with Moderate Greasiness [1, 7]: 44%
- Percent Fruit with No Greasiness [1, 7]: 1%
- Percent Fruit with Severe Greasiness [1, 7]: 48%
- Percent Fruit with Slight Greasiness [1, 7]: 7%
- Percent Fruit with Moderate Greasiness [1, 8]: 31.1%
- Percent Fruit with No Greasiness [1, 8]: 0%
- Percent Fruit with Severe Greasiness [1, 8]: 68.9%
- Percent Fruit with Slight Greasiness [1, 8]: 0%
- Percent Fruit with Moderate Greasiness [1, 9]: 15%
- Percent Fruit with No Greasiness [1, 9]: 0%
- Percent Fruit with Severe Greasiness [1, 9]: 85%
- Percent Fruit with Slight Greasiness [1, 9]: 0%
- Percent Fruit with Moderate Greasiness [1, 10]: 19%
- Percent Fruit with No Greasiness [1, 10]: 0%
- Percent Fruit with Severe Greasiness [1, 10]: 81%
- Percent Fruit with Slight Greasiness [1, 10]: 0%
- % Cripps Red ([2]; 125 ppm foliar spray): 15%
- % Cripps Red ([2]; 250 ppm foliar spray): 11.5%
- % Cripps Red ([2]; 500 ppm foliar spray): 9%
- % Pink Lady ([2]; 125 ppm foliar spray): 76.5%
- % Pink Lady ([2]; 250 ppm foliar spray): 84.5%
- % Pink Lady ([2]; 500 ppm foliar spray): 89%
- % Class 3 ([2]; 125 ppm foliar spray): 8.5%
- % Class 3 ([2]; 250 ppm foliar spray): 4%
- % Class 3 ([2]; 500 ppm foliar spray): 2%
- Brix ([3]; 125 ppm foliar spray): 12.25
- Firmness ([3]; 125 ppm foliar spray): 8.61
- Ground Color ([3]; 125 ppm foliar spray): 3.01
- Average % Red Pixel Area ([3]; 125 ppm foliar spray): 6.9%
- Brix ([3]; 250 ppm foliar spray): 12.5
- Firmness ([3]; 250 ppm foliar spray): 8.58
- Ground Color ([3]; 250 ppm foliar spray): 2.96
- Average % Red Pixel Area ([3]; 250 ppm foliar spray): 8%
- Brix ([3]; 500 ppm foliar spray): 12.51
- Firmness ([3]; 500 ppm foliar spray): 8.4
- Ground Color ([3]; 500 ppm foliar spray): 3.04
- Average % Red Pixel Area ([3]; 500 ppm foliar spray): 8.7%
- Starch ([3]; 125 ppm foliar spray): 40
- Starch ([3]; 250 ppm foliar spray): 45.3
- Starch ([3]; 500 ppm foliar spray): 56.2
- # of Fruit Dropped (Evaluation 1) ([4]; 125 ppm foliar spray to trees): 11.3 c
- # of Fruit Dropped (Evaluation 2) ([4]; 125 ppm foliar spray to trees): 10.4 bc
- Total # of Fruit Dropped ([4]; 125 ppm foliar spray to trees): 26.3 c
- # of Fruit Dropped (Evaluation 1) ([4]; 250 ppm foliar spray to trees): 15.2 c
- # of Fruit Dropped (Evaluation 2) ([4]; 250 ppm foliar spray to trees): 16.4 b
- Total # of Fruit Dropped ([4]; 250 ppm foliar spray to trees): 35.2 bc
- # of Fruit Dropped (Evaluation 1) ([4]; 500 ppm foliar spray to trees): 59.7 a
- # of Fruit Dropped (Evaluation 2) ([4]; 500 ppm foliar spray to trees): 40.1 a
- Total # of Fruit Dropped ([4]; 500 ppm foliar spray to trees): 105.8 a

SMILES: NCCO/C=C/[C@H](N)C(=O)O [AVG, ([S]-trans-2-amino-4-(2-aminoethoxy)-3-butenoic acid]
- Percent Fruit with Moderate Greasiness [1, 5]: 1%
- Percent Fruit with No Greasiness [1, 5]: 94%
- Percent Fruit with Severe Greasiness [1, 5]: 0%
- Percent Fruit with Slight Greasiness [1, 5]: 5%
- Percent Fruit with Moderate Greasiness [1, 8]: 49%
- Percent Fruit with No Greasiness [1, 8]: 22%
- Percent Fruit with Severe Greasiness [1, 8]: 2%
- Percent Fruit with Slight Greasiness [1, 8]: 27%
- % Cripps Red ([2]; 125 ppm foliar spray): 21.5%
- % Pink Lady ([2]; 125 ppm foliar spray): 69.5%
- % Class 3 ([2]; 125 ppm foliar spray): 9%
- Brix ([3]; 125 ppm foliar spray): 12.33
- Firmness ([3]; 125 ppm foliar spray): 8.62
- Ground Color ([3]; 125 ppm foliar spray): 2.93
- Average % Red Pixel Area ([3]; 125 ppm foliar spray): 6.3%
- Starch ([3]; 125 ppm foliar spray): 25.9
- # of Fruit Dropped (Evaluation 1) ([4]; 125 ppm foliar spray to trees): 9.7 c
- # of Fruit Dropped (Evaluation 2) ([4]; 125 ppm foliar spray to trees): 7.4 c
- Total # of Fruit Dropped ([4]; 125 ppm foliar spray to trees): 20.8 c
